Measured values published in patent US7153524B2, “Method for improving adsorption of a drug from ethylene oxide derivative” (Astellas Pharma Inc., priority 2002, dated 2006).
≈ marks a conversion by molar mass, not a printed value. Structures can show the parent of a compound that is named as a salt.

Columns and labels:
[1] = Adsorption of various compounds on the oil-gel phase (Experiment 5); assay type: physicochemical; details: 0.8% mucin, 600 μg loading, 2 hours
Method: When Macrogol 6000 was added to the aqueous phase, it was brought to 3.5% (n=3,6). […] The compounds that were used were […], nicardipine hydrochloride, compound B, and compound C. […] Furthermore, the oil phase surface was washed with methanol and the drug adsorbed on the oil phase in the recovered solution was assayed with an ultraviolet-visible spectrophotometer for each compound.

[2] = Solubility of compound A in water and components of mucus layer; assay type: physicochemical
Method: Compound A is a drug that acts directly from the gastric lumen side on the H. pylori that lives in the mucous layers and therefore, the case wherein after dissolution (I), the bulk powder that has been administered transfers (IV) and the case where the bulk powder is dissolved (II) after transferring to the mucous layers (III) will be considered. The effects of Macrogol 6000 on the course of dissolution of compound A were studied. A specific amount of compound A was added to ion-exchanged water, a 0.8% mucin (Sigma) solution, a 6.2% BSA (Sigma) solution, and linoleic acid (Sigma), and various drugs suspensions were obtained by exposure for 20 minutes to ultrasonic waves (Sono Cleaner, Kaijo Corporation). The rest of the procedure was performed as in Example 1 and the following samples were obtained.
Solubility of compound A in water was calculated by filtering the liquid after dispersion using a hydrophilic filter (0.45 μm, Advantec) and submitting the product to assay by high-performance liquid chromatography (HPLC hereafter) (n=2, sample (1); n=3, sample (2)).
Solubility of the drug in mucin was calculated by filtering the liquid after dispersion using a hydrophilic filter (0.8 μm, Advantec) and submitting the product to assay by HPLC (n=3, samples (3) and (4)).
The liquid after dispersion was filtered with a hydrophilic filter (0.45 μm, Advantec), absorbance at 370 nm and 550 nm (corrected for turbidity) was determined under room temperature using an ultraviolet-visible spectrophotometer, and solubility was calculated (n=3, samples (5) and (6)).
The liquid after dispersion was filtered with a hydrophilic filter (0.45 μm, Advantec), absorbance at 366 nm and 550 nm (corrected for turbidity) was determined under room temperature using an ultraviolet-visible spectrophotometer, and solubility was calculated (n=3, samples (7) and (8)).

[3] = Adsorption of compound A from aqueous phase onto immobilized oil-gel phase (Experiment 2); assay type: physicochemical; details: for adsorption amount of chemical compound A: drug charge 600 μg, 2 h
Method: (§1) In order to study adsorption of a drug from an aqueous phase onto an oil phase (model of mucous layers), an in vitro test system wherein mixing of the oil components in the aqueous phase is prevented was constructed by immobilizing the oil phase with a gelling agent and separating it from the aqueous phase of a drug suspended in a mucin solution. Immobilization of the oil phase was performed by adding 120 mg of an oil gelling agent, which is a natural oil and fat fatty acid extracted from castor oil (Johnson Co., Ltd.), to 2 mL of medium chain fatty acid triglyceride (Nihon Oils and Fats Co., Ltd.; brand name: Panaset) and preparing an oil gel in a test tube (inner diameter of 1 cm, Eiken tube No. 5). A solution of 600 μg of compound A suspended in 2 mL of an aqueous 0.8% mucin solution was prepared and brought into contact with the oil phase (n=6). When Macrogol 6000 was added to the aqueous phase, the concentration was brought to 3.5% (n=3 to 6). After setting the solution aside for two hours, the aqueous phase was recovered and compound A was assayed by HPLC. Furthermore, the surface of the oil phase was washed with methanol and compound A in the recovered solution was assayed by HPLC.

[4] = Rate of adsorption of compound A on the oil-gel phase in presence of POE excipients (Experiment 3); assay type: physicochemical
Method: as §1
The rate of adsorption of a drug of compound A on the oil phase was measured by the same method as in Example 2.

H. pylori [5] = assay: In vivo anti-H. pylori activity, Mongolian gerbil infection model (Experiment 4); parameters: species or system Mongolian gerbils; details: for Clearance rate: oral twice a day for three days
Method: In vivo anti-H. pylori activity was evaluated with animal experiments using Mongolian gerbil infection models. […] The drug was administered twice a day for three days at an administration volume of 20 mL/kg using an oral stomach tube. The stomach was autopsied and excised and the number of H. pylori in the stomach were measured the day after the final administration. In vivo anti-H. pylori activity was evaluated from clearance, that is, the ratio of the number of cases in which H. pylori was identified and the number of cases in which the number of bacteria after treatment was below the detection limit.

H. pylori [6] = assay: Minimum concentration at which an increase in bacteria is inhibited; assay type: cell-based
H. pylori [7] = details: compound used alone; cited from earlier work

## Cc1nc2c([nH]1)-c1ccccc1N(C(=O)c1ccc(NC(=O)c3ccccc3-c3ccccc3)cc1)CC2.Cl [compound C, 4′-[(2-methyl-1,4,5,6-tetrahydroimidazo[4,5-d][1]benzazepin-6-yl)carbonyl]-2-phenylbenzanilide hydrochloride]
[1]; with 3.5% PEG6000
  adsorption amount of chemical compound: 370 ± 12 µg
[1]; without PEG6000
  adsorption amount of chemical compound: 335 ± 10 µg

## CCCCCC/C=C/Cc1c(C)c(=O)c2ccccc2n1O [compound A, 1-hydroxy-2-(2-trans-nonenyl)-3-methyl-4(1H)-quinolone]
[2]; 0.8% mucin aq. solution (sample 3)
  solubility: 5.9 µg/mL (≈ 19.7 µM)
[2]; 0.8% mucin aq. solution +3.5% PEG6000 (sample 4)
  solubility: 6.9 µg/mL (≈ 23 µM)
[2]; 6.2% BSA aq. solution (sample 5)
  solubility: 18.0 µg/mL (≈ 60.1 µM)
[2]; 6.2% BSA aq. solution +3.5% PEG6000 (sample 6)
  solubility: 26.9 µg/mL (≈ 89.8 µM)
[2]; BSA solution, sample 6 vs 5
  increase in solubility when Macrogol 6000 was added: 1.5 fold
[2]; aqueous mucin solution, sample 4 vs 3
  increase in solubility when Macrogol 6000 was added: 1.2 fold
[2]; distilled water +3.5% PEG6000 (sample 2)
  solubility: 0.1 µg/mL (≈ 0.334 µM)
[2]; distilled water, no PEG6000 (sample 1)
  solubility: 0.1 µg/mL (≈ 0.334 µM)
[2]; linoleic acid (sample 7)
  solubility: 135.0 µg/mL (≈ 451 µM)
[2]; linoleic acid +10% PEG6000 (sample 8)
  solubility: 110.0 µg/mL (≈ 367 µM)
[3]; compound A-mucin suspension with Macrogol 6000, average
  drug adsorbed at the surface of the oil phase, % of the drug that was added: 93%
[3]; compound A-mucin suspension, no Macrogol 6000
  drug adsorbed at the surface of the oil phase, % of the charged amount: 47%
[3]; mucin (+), with 3.5% PEG6000
  adsorption amount of chemical compound A: 506 µg
[3]; mucin (+), with 3.5% PEG6000, listed as chemical compound A
  adsorption amount of chemical compound A: 506 ± 53 µg
[3]; mucin (+), without PEG6000
  adsorption amount of chemical compound A: 259 µg
[3]; mucin (+), without PEG6000, listed as chemical compound A
  adsorption amount of chemical compound A: 259 ± 63 µg
[3]; mucin (−), with 3.5% PEG6000
  adsorption amount of chemical compound A: 173 ± 25 µg
[3]; mucin (−), without PEG6000
  adsorption amount of chemical compound A: 249 ± 24 µg
[3]; mucin suspension, with vs without Macrogol 6000
  increase in amount adsorbed on the oil phase when Macrogol 6000 was added: 2.0 fold
[4]; excipient HCO 60 (n 60, m 10)
  Adsorption on the oil-gel phase, amount(%): 33 ± 14%
[4]; excipient HCO 80 (n 80, m 13.3)
  Adsorption on the oil-gel phase, amount(%): 17 ± 10%
[4]; excipient HCO 100 (n 100, m 16.7)
  Adsorption on the oil-gel phase, amount(%): 37 ± 11%
[4]; excipient PEG400 (n 8, m 8)
  Adsorption on the oil-gel phase, amount(%): 42 ± 9%
[4]; excipient PEG 4000 (n 72, m 72)
  Adsorption on the oil-gel phase, amount(%): 42 ± 4 %
[4]; excipient PEG 6000 (n 188, m 188)
  Adsorption on the oil-gel phase, amount(%): 72 ± 3 %
[4]; excipient PEG 20000 (n 455, m 455)
  Adsorption on the oil-gel phase, amount(%): 79 ± 0 %
[4]; excipient Pluronic F68 (n 160, m 80)
  Adsorption on the oil-gel phase, amount(%): 67 ± 3 %
[4]; excipient Pluronic L31 (n 3, m 1.5)
  Adsorption on the oil-gel phase, amount(%): 28 ± 5%
[4]; excipient Pluronic L44 (n 20, m 10)
  Adsorption on the oil-gel phase, amount(%): 25 ± 2%
[4]; excipient Pluronic L64 (n 27, m 13.5)
  Adsorption on the oil-gel phase, amount(%): 32 ± 5%
[4]; excipient Pluronic P85 (n 54, m 27)
  Adsorption on the oil-gel phase, amount(%): 40 ± 4 %
[4]; excipient Pluronic P103 (n 29, m 14.5)
  Adsorption on the oil-gel phase, amount(%): 22 ± 7%
[4]; without excipient
  Adsorption on the oil-gel phase, amount(%): 19 ± 7%
H. pylori [5]; 0.2% Macrogol 6000 added vs 0.5% MC suspension alone
  augmentation of the in vivo anti-H. pylori activity: 10 fold
H. pylori [5]; 0.2% Macrogol 6000 in 0.5% MC suspension, dose of 0.1 mg/kg or higher
  clearance: ≥ 80%
H. pylori [5]; 0.2% of Macrogol 6000 added
  in vivo anti-H. pylori activity with Macrogol 6000 compared to without: augmentation of in vivo anti-H. pylori activity was seen
H. pylori [5]; PEG6000 0%, dose 0.1 mg/kg
  Clearance ratio: (0/5)
  Clearance rate: 0%
H. pylori [5]; PEG6000 0%, dose 0.3 mg/kg
  Clearance ratio: (1/5)
  Clearance rate: 20%
H. pylori [5]; PEG6000 0%, dose 1 mg/kg
  Clearance ratio: (4/5)
  Clearance rate: 80%
H. pylori [5]; PEG6000 0%, dose 1 mg/kg, listed as chemical compound A
  Clearance rate: 80%
H. pylori [5]; PEG6000 0%, dose 3 mg/kg
  Clearance ratio: (4/5)
  Clearance rate: 80%
H. pylori [5]; PEG6000 0.2%, dose 0.1 mg/kg
  Clearance ratio: (4/5)
  Clearance rate: 80%
H. pylori [5]; PEG6000 0.2%, dose 0.3 mg/kg
  Clearance ratio: (4/4)
  Clearance rate: 100%
H. pylori [5]; PEG6000 0.2%, dose 1 mg/kg
  Clearance ratio: (4/5)
  Clearance rate: 80%
H. pylori [5]; PEG6000 0.2%, dose 3 mg/kg
  Clearance ratio: (4/4)
  Clearance rate: 100%
H. pylori [6]
  minimum concentration at which an increase in bacteria is inhibited: 0.025 µg/mL
H. pylori [7]
  number of live bacteria in vivo: reduction in the number of live bacteria in vivo

## COC(=O)C1=C(C)NC(C)=C(C(=O)OCCN(C)Cc2ccccc2)C1c1cccc([N+](=O)[O-])c1 (stereo not shown) [nicardipine, nicardipine hydrochloride, reference compound]
[1]; with 3.5% PEG6000
  adsorption amount of chemical compound: 96 ± 5 µg
[1]; without PEG6000
  adsorption amount of chemical compound: 47 ± 6 µg

## Cc1cccc(NC(=O)N[C@@H]2N=C(c3ccccc3)c3ccccc3N(CC(=O)c3ccccc3C)C2=O)c1 [compound B, (R)-1-[2,3-dihydro-1-(2′-methylphenacyl)-2-oxo-5-phenyl-1H-1,4-benzodiazepin-3-yl]-3-(3-methylphenyl)urea]
[1]; with 3.5% PEG6000
  adsorption amount of chemical compound: 411 ± 3 µg
[1]; without PEG6000
  adsorption amount of chemical compound: 269 ± 13 µg
